Experimental data as given in patent US20240076394A1, “MODULATING THE IMMUNE RESPONSE USING ANTI-CD30 ANTIBODY-DRUG CONJUGATES” (Seagen Inc., priority 2020, published 2024).
“Also recorded” adds a separate entry of the source.

B1: SGN-CD30C: antibody-drug conjugate of Formula (IC): L is anti-CD30 antibody brentuximab, y is 1, z is 8, p is 8 (conjugate)
VH: QIQLQQSGPEVVKPGASVKISCKASGYTFTDYYITWVKQKPGQGLEWIGWIYPGSGNTKYNEKFKGKATLTVDTSSSTAFMQLSSLTSEDTAVYFCANYGNYWFAYWGQGTQVTVSA
VL: DIVLTQSPASLAVSLGQRATISCKASQSVDFDGDSYMNWYQQKPGQPPKVLIYAASNLESGIPARFSGSGSGTDFTLNIHPVEEEDAATYYCQQSNEDPWTFGGGTKLEIK

Assays:
[1] = test system: CD30+ cell lines; settings: in vitro; cited from earlier work
[2] = test system: xenograft models of Hodgkin disease; settings: SCID mouse xenograft models of Hodgkin disease; cited from earlier work
[3] = test system: CD30+ inducible T regulatory cells (iTregs); assay: In vitro depletion of CD30+ inducible T regulatory cells (flow cytometry live cell counts); type: cell-based, human; settings: iTregs from normal donors, CD3/CD28 beads 1:4 and 10 ng/ml IL-2, 4-5 days, titration of ADC; compared to non-binding control ADC hIgG-7782; FIG. 1A
Description: The ability of the anti-CD30 antibody-drug conjugate SGN-CD30C to deplete CD30+T regulatory (Tregs) was assessed in vitro. Inducible T regulatory cells (iTregs) were differentiated from cryopreserved CD4^+ T cells of two normal donors (Cellero, Bothell, Washington, Cat #1023) in X-Vivo 15 media (Lonza, Cat #04-418Q) supplemented with 50 ng/ml TGFβ1 (R&D, cat #100-B), 50 ng/ml IL-2 (R&D, Cat #202-IL/CF) and a 1:100 dilution of Lipid Mixture 1 (Sigma, Cat #L0288-100 ml) with CD3/CD28 beads (Miltenyi, Cat #130-095-345) at a 1:20 bead:cell ratio for 6 days at 37° C. and 5% CO2, followed by 2 days resting in X-Vivo 15 media only. Differentiated iTregs were then immunophenotyped prior to in vitro cytotoxicity assays with a viability dye and fluorescently labeled anti-human CD3, CD4, CD8, CD25 and Foxp3 (Biolegend and BD Pharmingen), and analyzed on an Attune NxT Flow Cytometer (Life Technologies). Following differentiation, the iTreg populations were 38% and 53% CD25^+FoxP3^+. Inducible Tregs from 3 additional normal donors were also ordered directly from Cellero (Cat #1042). […]

[4] = test system: CD4+CD127lowCD25+ peripheral blood Tregs (CD30+); assay: In vitro depletion of CD30+ peripheral blood T regulatory cells (flow cytometry live cell counts); type: cell-based, human; settings: peripheral blood Tregs from 2 normal donors, CD3/CD28 beads 1:4 and 10 ng/ml IL-2, 4-5 days, titration of ADC; compared to non-binding control ADC hIgG-7782; FIG. 1B
Description: Cryopreserved inducible Tregs from 5 normal donors and CD4^+CD127^lowCD25^+ peripheral blood Tregs from 2 normal donors (Cellero and Stem Cell Technologies) were washed and resuspended in RPMI 1640 media containing 10% FBS and put into culture with CD3/CD28 beads at a 1:4 bead:cell ratio and 10 ng/ml IL-2 for 4-5 days in a 96-well round bottom plate at 37° C. and 5% CO2 in a titration of cAC10-7782 or non-specific control hIgG-7782. At the end of the incubation, cells were washed and stained with a Zombie Aqua viability dye and CD30 PE (Biolegend), and both total and CD30^+ live cell counts were determined using an Attune Nxt Flow cytometer. Untreated inducible Tregs were 37-80% CD30^+ and peripheral Tregs were 33-68% CD30^+ at the conclusion of the assay.
Cell counts are shown as the percent of untreated control.

Row | Molecule | growth arrest of CD30+ cell lines [1] | antitumor activity [2] | total CD30+ iTreg count (percent of untreated control) [3] | peripheral blood CD30+ Treg count (percent of untreated control) [4]
1 | cAC10: chimeric IgG1 monoclonal antibody that specifically binds CD30 | induces growth arrest | pronounced antitumor activity | – | –
2 | B1 | – | – | depleted; also recorded: dose-dependent reduction | depleted; also recorded: dose-dependent reduction
